Values quoted from earlier work in patent US20090068287A1, “Novel topical formulations of flucytosine and uses thereof” (priority 2007, published 2009).

What was measured:
C. glabrata [1] = conditions: boric acid 600 mg/day 2 to 3 weeks; flucytosine cream nightly for 14 days
C. tropicalis [2] = conditions: 70 C. tropicalis isolates
C. parapsilosis = conditions: 65 C. parapsilosis isolates
C. glabrata [3] = conditions: 68 C. glabrata isolates
Candida albicans = conditions: 342 Candida albicans isolates
C. albicans = conditions: 104 patients with vulvovaginal candidiasis
[4] = human, in vivo
C. tropicalis [5] = conditions: 28 patients on miconazole nitrate, 13 on clotrimazole, nightly for seven nights; 3 secondarily on ketoconazole 200 mg for 14 days

## C[C@@H]1[C@H](O)[C@@H](C)/C=C/C=C/C=C/C=C/C=C/C=C/C=C/[C@H](O[C@@H]2O[C@H](C)[C@@H](O)[C@H](N)[C@@H]2O)C[C@@H]2O[C@](O)(C[C@@H](O)C[C@@H](O)[C@H](O)CC[C@@H](O)C[C@@H](O)CC(=O)O[C@H]1C)C[C@H](O)[C@H]2C(=O)O [amphotericin B]
Clinical yeast isolates
  cross-resistance of fluconazole/itraconazole resistant C. albicans isolates: no cross-resistance

## OB(O)O [boric acid]
C. glabrata [1]
  clinical and mycological success / successful outcome, number of women: 47 of 73
  clinical and mycological success / successful outcome, percent of women: 64%

## OC(Cn1cncn1)(Cn1cncn1)c1ccc(F)cc1F [fluconazole]
C. tropicalis [2]
  isolates resistant: 27.1%
Clinical yeast isolates; 227 clinical yeast isolates
  yeast strains resistant: Almost thirteen percent
C. parapsilosis
  isolates resistant: 4.6%
C. glabrata [3]
  isolates resistant: 10.3%
Candida albicans
  isolates showing resistance: 7.6%
C. albicans
  resistant C. albicans isolated, share of the cases: 13.46%

## Nc1nc(=O)[nH]cc1F [flucytosine, 4-amino-5-fluoropyrimidin-2(1H)-one]
[4]
  plasma level that led to bone marrow depression and hepatotoxicity: greater than 100 mg/L

## CC(=O)N1CCN(c2ccc(OCC3COC(Cn4ccnc4)(c4ccc(Cl)cc4Cl)O3)cc2)CC1 (stereo not drawn) [ketoconazole]
C. tropicalis [2]
  isolates resistant: 2.9%
Clinical yeast isolates
  cross-resistance of fluconazole/itraconazole resistant C. albicans isolates: decreased susceptibilities
C. tropicalis [5]
  patients with recurrences: all three

## Clc1ccc(COC(Cn2ccnc2)c2ccc(Cl)cc2Cl)c(Cl)c1 (stereo not drawn) [miconazole]
Clinical yeast isolates
  cross-resistance of fluconazole/itraconazole resistant C. albicans isolates: decreased susceptibilities

## C[C@@H]1[C@H](O)[C@@H](C)/C=C/C=C/CC/C=C/C=C/C=C/C=C/C(O[C@H]2O[C@H](C)[C@@H](O)[C@H](N)[C@@H]2O)CC2O[C@](O)(CC(O)C(O)CCC(O)CC(O)CC(O)CC(=O)O[C@H]1C)CC(O)C2C(=O)O (stereo partly drawn) [nystatin]
Clinical yeast isolates
  cross-resistance of fluconazole/itraconazole resistant C. albicans isolates: no cross-resistance
